28 compounds from ChEMBL document CHEMBL5532731, “Structural Modifications of Covalent Cathepsin S Inhibitors: Impact on Affinity, Selectivity, and Permeability” (ACS Med Chem Lett, 2024) can be followed below.

Calls of active or inactive are those of the source. No cut-off for these calls is given here. Starred links: 1 amine or outer side, 2 acyl side, 3 side chain; linkers in the order of their positions; H or OH if unused. Non-standard residues stand in square brackets, D forms with d. Residues, ends and D or L forms follow the SMILES beside them. *: point of attachment. Cha = N[C@@H](CC1CCCCC1)C(=O)O; Morpholide = C1CN(*)CCO1; CO = O=C([*:1])[*:2]; Bn = c1ccc(C*)cc1; CH2Cl = ClC*

The target in one series is Cathepsin B (Homo sapiens, UniProt P07858). As to the kind of experiment: Inhibition of human Cathepsin B using Z-Phe-Arg-AMC as substrate by fluorescence based assay.
The target in the next series is Procathepsin L (Homo sapiens, UniProt P07711). Put plainly: Inhibition of human Cathepsin L using Z-Phe-Arg-AMC as substrate by fluorescence based assay.
Series [1] can be described thus: Selectivity index, ratio of Ki for human Cathepsin B using Z-Phe-Arg-AMC as substrate to Ki for recombinant Cathepsin S (unknown origin) expressed in Escherichia coli using Z-Val-Val-Arg-AMC as substrate.
Series [2] is described as follows: Selectivity index, ratio of Ki for human Cathepsin L using Z-Phe-Arg-AMC as substrate to Ki for recombinant Cathepsin S (unknown origin) expressed in Escherichia coli using Z-Val-Val-Arg-AMC as substrate.
Series [3] can be described thus: Permeability of compound measured after 7 hrs by PAMPA. The format is ADME. As to conditions: read-out: permeability. (In PAMPA a lipid-coated filter parts donor from acceptor wells.)
For series [4], the target named is T1, Cathepsin S (Homo sapiens, UniProt P25774). Put plainly: Binding affinity to recombinant Cathepsin S (unknown origin) expressed in Escherichia coli using Z-Val-Val-Arg-AMC as substrate assessed as inhibition constant for slowly reversible binding by fluorescence based assay.
Target sequence in this assay (P25774 whole entry): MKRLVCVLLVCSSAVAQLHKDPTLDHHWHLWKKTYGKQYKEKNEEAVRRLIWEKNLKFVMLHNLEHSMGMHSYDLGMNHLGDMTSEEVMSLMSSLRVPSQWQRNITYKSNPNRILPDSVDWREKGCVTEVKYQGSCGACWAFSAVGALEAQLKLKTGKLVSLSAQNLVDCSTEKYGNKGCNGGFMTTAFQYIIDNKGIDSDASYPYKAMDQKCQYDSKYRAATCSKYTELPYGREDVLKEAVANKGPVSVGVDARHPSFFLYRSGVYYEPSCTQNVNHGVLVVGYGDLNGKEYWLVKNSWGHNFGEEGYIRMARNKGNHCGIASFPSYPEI
The target of series [5] is T1, Cathepsin S. Put plainly: Inhibition of recombinant Cathepsin S (unknown origin) expressed in Escherichia coli using Z-Val-Val-Arg-AMC as substrate by fluorescence based assay.
Target sequence in this assay (P25774 whole entry): as above
The nature of series [6]: Stability of compound at pH 7.4 assessed as compound remaining measured after 24 hrs. It counts as physicochemical. As to conditions: buffer, read-out: Stability.
The nature of series [7]: Stability of compound at pH 4 assessed as compound remaining measured after 24 hrs. The format is physicochemical. To be noted: buffer, pH 4, 24 h.
Series [8] is described as follows: Stability of compound at pH 4 assessed as compound remaining measured after 2 hrs. It counts as physicochemical. As to conditions: buffer, pH 4, 2 h.
In series [9] the target is T1, Cathepsin S. Put plainly: Irreversible binding affinity to recombinant Cathepsin S (unknown origin) expressed in Escherichia coli incubated for 60 mins followed by substrate addition by fluorescence based dilution assay.
Target sequence in this assay (P25774 115-331 limits assumed): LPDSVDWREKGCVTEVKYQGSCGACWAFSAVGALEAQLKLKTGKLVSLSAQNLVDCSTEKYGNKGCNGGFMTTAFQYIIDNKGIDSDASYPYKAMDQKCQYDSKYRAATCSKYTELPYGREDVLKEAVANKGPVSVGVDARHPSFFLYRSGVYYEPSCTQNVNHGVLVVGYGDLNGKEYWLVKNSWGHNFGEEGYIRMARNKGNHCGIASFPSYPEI
The target in series [10] is T1, Cathepsin S. Put plainly: Binding affinity to recombinant Cathepsin S (unknown origin) expressed in Escherichia coli using Z-Val-Val-Arg-AMC as substrate assessed as second-order rate constant (K) for irreversible binding by fluorescence based assay.
Target sequence in this assay (P25774 115-331 limits assumed): as above
For series [11], the target named is T1, Cathepsin S. Put plainly: Binding affinity to recombinant Cathepsin S (unknown origin) expressed in Escherichia coli using Z-Val-Val-Arg-AMC as substrate assessed as Kinact for irreversible binding by fluorescence based assay.
Target sequence in this assay (P25774 115-331 limits assumed): as above
Series [12] can be described thus: Oral bioavailability in rat. It counts as ADME, organism-based. To be noted: in vivo.
Series [13] addresses T1, Cathepsin S. As to the kind of experiment: Inhibition of Cathepsin S (unknown origin).
Target sequence in this assay (P25774 whole entry): as the sequence (P25774 whole entry) above

Procathepsin L, sequence (P07711 whole entry): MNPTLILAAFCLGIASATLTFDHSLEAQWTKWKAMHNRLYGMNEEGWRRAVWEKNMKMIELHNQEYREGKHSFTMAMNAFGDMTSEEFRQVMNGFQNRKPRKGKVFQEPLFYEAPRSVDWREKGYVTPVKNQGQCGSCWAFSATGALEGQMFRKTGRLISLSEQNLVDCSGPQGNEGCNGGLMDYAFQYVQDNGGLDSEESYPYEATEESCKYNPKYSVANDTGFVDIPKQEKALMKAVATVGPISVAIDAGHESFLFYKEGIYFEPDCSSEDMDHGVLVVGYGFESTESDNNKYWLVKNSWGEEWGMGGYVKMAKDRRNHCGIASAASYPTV

On to `O=C[C@H](COCc1ccccc1)NC(=O)[C@H](CC1CCCCC1)NC(=O)N1CCOCC1` ({Morpholide-CO}-[Cha]-Ser(Bn)-aldehyde), for which the Ki on Cathepsin B was determined as 64 nM; at Procathepsin L it was 17 nM; at Cathepsin S [4], 0.016 nM; on Cathepsin S [5] it was 0.039 nM. The Ratio Ki in series [1] is greater than 1600; in [2], greater than 435. In addition, the Papp at 7 h in series [3] worked out at 4.5 ×10⁻⁶ cm/s.

In the case of `O=C(N/N=C/[C@H](COCc1ccccc1)NC(=O)[C@H](CC1CCCCC1)NC(=O)N1CCOCC1)c1ccccc1`, the remaining at 24 h in series [6] turned out to be 50%. The Ki at Cathepsin B amounted to 142 nM; on Procathepsin L, 21 nM; on Cathepsin S [5], 2.2 nM. Besides, the Papp at 7 h in series [3] was 0.1 ×10⁻⁶ cm/s. Further, the Stability is 80% in series [7] and 50% in [8].

For the compound `O=C(OCC(=O)[C@H](COCc1ccccc1)NC(=O)[C@H](CC1CCCCC1)NC(=O)N1CCOCC1)c1ccccc1`, the Ki on Cathepsin B is greater than 2550 nM; on Procathepsin L it was greater than 600 nM; at Cathepsin S [5], 25 nM. At Cathepsin S [9], the outcome was Active.

With `CS(=O)(=O)C[C@H](N[C@@H](c1ccc([N+](=O)[O-])cc1)C(F)(F)F)C(=O)NC1(C#N)CC1`, the Ki at Cathepsin B was greater than 12000 nM; on Procathepsin L it was greater than 10000 nM; on Cathepsin S [5], 7.8 nM. Moreover, in series [1], the Ratio Ki was greater than 1500.

With `N#C[C@H](COCc1ccccc1)NC(=O)[C@H](CC1CCCCC1)N[C@@H](c1ccc(F)cc1)C(F)(F)F`, the results for the Ki on Cathepsin B, at Procathepsin L and on Cathepsin S [5] were greater than 12000 nM, greater than 10000 nM and 11 nM, respectively.

Turning to `N#CC1(NC(=O)[C@H](CC2CCCCC2)NC(=O)c2ccncc2)CC1`, the Ki at Cathepsin B is greater than 12000 nM; on Procathepsin L, 716 nM; at Cathepsin S [5] it was 13 nM.

Consider `CS(=O)(=O)C[C@H](N[C@@H](c1ccc([N+](=O)[O-])cc1)C(F)(F)F)C(=O)N[C@H](C#N)CCc1ccccc1`, for which the figures for the Ki at Cathepsin B, at Procathepsin L and on Cathepsin S [5] were 36 nM, greater than 10000 nM and 3.6 nM, respectively. Besides, in [2], the Ratio Ki was greater than 2780.

For `N#C[C@H](COCc1ccccc1)NC(=O)[C@H](CC1CCCCC1)NC(=O)N1CCOCC1`, the Ki on Cathepsin B turned out to be 1050 nM; on Procathepsin L, 543 nM. The Papp at 7 h in series [3] amounted to 4.7 ×10⁻⁶ cm/s.

For the compound `N#C[C@H](COCc1ccccc1)NC(=O)[C@H](CC1CCCCC1)NC(=O)C1CCOCC1`, the Ki at Cathepsin B is greater than 12000 nM; on Procathepsin L, 5040 nM; at Cathepsin S [5], 61 nM. Besides, the Papp at 7 h in [3] came to 4.1 ×10⁻⁶ cm/s.

Regarding `N#CC1(NC(=O)[C@H](CC2CCCCC2)NC(=O)N2CCOCC2)CC1`, the values for the inhibition constant Ki at Cathepsin B, at Procathepsin L and on Cathepsin S [5] were greater than 12000 nM, 385 nM and 1.5 nM, respectively.

With `CS(=O)(=O)C[C@H](N[C@@H](c1ccc(F)cc1)C(F)(F)F)C(=O)N[C@H](C#N)COCc1ccccc1`, the Ki came to 157 nM at Cathepsin B, 1950 nM on Procathepsin L and 2.4 nM on Cathepsin S [5].

Regarding `O=C(CCl)[C@H](COCc1ccccc1)NC(=O)[C@H](CC1CCCCC1)NC(=O)N1CCOCC1` ({Morpholide-CO}-[Cha]-Ser(Bn)-CH2Cl), the K on Cathepsin S [10] was 4.3 10^6/M/s. Moreover, the Kinact at Cathepsin S [11] came out at 0.002 s⁻¹. Besides, the Ki at Cathepsin S [5] worked out at 0.5 nM.

Consider `O=C(CO)[C@H](COCc1ccccc1)NC(=O)[C@H](CC1CCCCC1)NC(=O)N1CCOCC1`, for which the Ki was greater than 2550 nM on Cathepsin B, greater than 600 nM at Procathepsin L and 67 nM at Cathepsin S [5]. Also, the outcome at Cathepsin S [9] was inactive.

As to `N#C[C@H](COCc1ccccc1)NC(=O)[C@H](CC1CCCCC1)NC(=O)c1ccncc1`, the Ki at Cathepsin B came out at 1910 nM; on Procathepsin L, 1020 nM. The Papp at 7 h in [3] is 2 ×10⁻⁶ cm/s.

With `O=C(SCC(=O)[C@H](COCc1ccccc1)NC(=O)[C@H](CC1CCCCC1)NC(=O)N1CCOCC1)c1ccccc1`, the figures for the Ki on Cathepsin B, at Procathepsin L and on Cathepsin S [5] were greater than 10 nM, greater than 3000 nM and 165 nM, respectively. On Cathepsin S [9], the outcome was inactive.

Take `CS(=O)(=O)C[C@H](N[C@@H](c1ccc([N+](=O)[O-])cc1)C(F)(F)F)C(=O)N[C@H](C#N)COCc1ccccc1`: the Ki on Cathepsin B was 82 nM; at Procathepsin L, greater than 10000 nM; on Cathepsin S [5], 13 nM. Moreover, in series [3], the Papp at 7 h was 0.7 ×10⁻⁶ cm/s.

`N#CC1(NC(=O)[C@H](CC2CCCCC2)NC(=O)C2CCOCC2)CC1`: the Ki on Cathepsin B was greater than 12000 nM; on Procathepsin L it was 1670 nM; on Cathepsin S [5], 117 nM. The Papp at 7 h in series [3] was 0.1 ×10⁻⁶ cm/s.

As to `N#C[C@H](CCc1ccccc1)NC(=O)[C@H](CC1CCCCC1)NC(=O)N1CCOCC1`, the Ki at Cathepsin B was found to be 7850 nM; on Procathepsin L, 2540 nM. In series [3], the Papp at 7 h amounted to 6 ×10⁻⁶ cm/s.

In series [12], `CNC(=O)O[C@H]1COc2ccc(N3CCN(C4COC4)CC3)cc2[C@@H]1NC(=O)c1ccc(F)cc1` had a bioavailability of 92%.

`O=C(N/N=C(\CS(=O)(=O)c1ccccc1)[C@H](COCc1ccccc1)NC(=O)[C@H](CC1CCCCC1)NC(=O)N1CCOCC1)c1ccccc1`: the Ki was greater than 12 nM at Cathepsin B, greater than 2500 nM at Procathepsin L and 989 nM at Cathepsin S [5]. For the same compound, the Stability in series [7] was determined as 13%.

Turning to `C=CS(=O)(=O)C(=O)[C@H](COCc1ccccc1)NC(=O)[C@H](CC1CCCCC1)NC(=O)N1CCOCC1`, at Cathepsin S [10], the K is 7.2 10^6/M/s. The Kinact on Cathepsin S [11] was 0.02 s⁻¹. In addition, the outcome at Cathepsin S [9] was Active. Besides, the Ki at Cathepsin S [5] worked out at 3 nM.

With `N#C[C@H](CCc1ccccc1)NC(=O)[C@H](CC1CCCCC1)NC(=O)C1CCOCC1`, the Ki at Cathepsin B was greater than 12000 nM; on Procathepsin L it was 6340 nM; on Cathepsin S [5] it was 382 nM. Also, the Papp at 7 h in series [3] stood at 6.6 ×10⁻⁶ cm/s.

On to `CN1CCN(C(=O)N[C@@H](Cc2ccccc2)C(=O)N[C@H](/C=C/S(=O)(=O)c2ccccc2)CCc2ccccc2)CC1` [K-777], for which the Ki on Cathepsin S [13] worked out at 13 nM.

For the compound `N#C[C@H](CCc1ccccc1)NC(=O)[C@H](CC1CCCCC1)N[C@@H](c1ccc(F)cc1)C(F)(F)F`, the values for the Ki on Cathepsin B, on Procathepsin L and on Cathepsin S [5] were greater than 12000 nM, greater than 10000 nM and 146 nM, respectively.

For `O=C(CS(=O)(=O)c1ccccc1)[C@H](COCc1ccccc1)NC(=O)[C@H](CC1CCCCC1)NC(=O)N1CCOCC1`, the Ki was greater than 510 nM at Cathepsin B, greater than 600 nM at Procathepsin L, 43 nM at Cathepsin S [4] and 331 nM on Cathepsin S [5]. Besides, the Papp at 7 h in [3] amounted to 0.8 ×10⁻⁶ cm/s. The outcome on Cathepsin S [9] was inactive.

As for `N#CC1(NC(=O)[C@H](CC2CCCCC2)N[C@@H](c2ccc(F)cc2)C(F)(F)F)CC1`, the figures for the Ki on Cathepsin B, at Procathepsin L and on Cathepsin S [5] were greater than 12000 nM, 1500 nM and 20 nM, respectively. Further, in series [3], the Papp at 7 h is 4.9 ×10⁻⁶ cm/s.

Take `CS(=O)(=O)C[C@H](N[C@@H](c1ccc(F)cc1)C(F)(F)F)C(=O)NC1(C#N)CC1`: the Ki at Cathepsin B was found to be 1670 nM; on Procathepsin L, 7110 nM; at Cathepsin S [5], 1 nM. In addition, in series [1], the Ratio Ki was determined as 1670. For the same compound, the outcome at Cathepsin S [9] was inactive.

With `N#C[C@H](CCc1ccccc1)NC(=O)[C@H](CC1CCCCC1)NC(=O)c1ccncc1`, the Ki at Cathepsin B was found to be 1670 nM; on Procathepsin L, 1460 nM; at Cathepsin S [5], 13 nM. Besides, the Papp at 7 h in series [3] stood at 2.5 ×10⁻⁶ cm/s.

Broadly, the Ki is a dissociation constant, usually derived from enzyme kinetics or from competition with a known ligand. As a reminder, the bioavailability is dose-corrected exposure relative to a reference, in per cent.
